This note sets out measurements from US8426151B2, “Systems and methods for the detection of biomarkers” (Companion Diagnostics Inc., priority 2010, dated 2013).

Values joined by “and” are separate entries in the source; they are usually repeats but may differ in a detail not shown here. Equal entries are not always repeated.

One assay relates to peroxidase. Nature of the assay: Peroxidase assay in saliva (Amplex Red). It is filed as biochemical. The note with it: 500 ppm, 30 minutes, FIGS. 26-29. The protocol: To determine the effect of various GRAS compounds as inhibitors of peroxidase activity, a standard assay using Amplex® Red (Life Technologies), which releases a fluorescent oxidation product.
The test compounds, such as GRAS materials or cocktails of same, were prepared at a concentration of 500 ppm in distilled water. For the assay, 50 μl samples of test compounds were mixed with 20-30 μl of saliva (either “pooled” or “unpooled”) prior to the addition of Amplex® Red. Following the mixture of the test compounds with saliva, 50 μl of Amplex® Red/HRP working solution (See Protocol for Invitrogen Assay #A22188, which is incorporated herein in its entirety), which has a concentration of 100 μM of Amplex® Red, is added to the test compound/saliva mixture. […] Reactions were allowed to run for 30 minutes during these assays.

The target of the next assay is T1, α-amylase (Homo sapiens, UniProt P0DUB6).
T1 sequence (P0DUB6 16-511): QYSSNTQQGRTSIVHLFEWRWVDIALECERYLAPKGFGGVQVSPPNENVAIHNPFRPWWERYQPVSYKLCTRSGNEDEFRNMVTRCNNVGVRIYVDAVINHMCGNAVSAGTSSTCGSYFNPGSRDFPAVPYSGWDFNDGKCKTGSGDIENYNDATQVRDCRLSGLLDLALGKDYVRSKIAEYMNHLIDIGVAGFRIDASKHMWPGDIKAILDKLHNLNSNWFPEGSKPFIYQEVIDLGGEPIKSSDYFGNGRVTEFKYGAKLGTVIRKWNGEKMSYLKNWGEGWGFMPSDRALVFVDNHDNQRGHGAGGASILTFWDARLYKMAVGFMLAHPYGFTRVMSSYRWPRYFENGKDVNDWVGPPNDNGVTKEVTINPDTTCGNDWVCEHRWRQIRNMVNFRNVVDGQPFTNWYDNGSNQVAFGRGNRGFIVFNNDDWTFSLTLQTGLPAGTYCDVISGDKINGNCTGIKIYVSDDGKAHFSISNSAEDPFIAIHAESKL
Nature of the assay: α-Amylase inhibition saliva screening (2-chloro-p-nitrophenol-maltotriose substrate, 405 nm). In kind it is biochemical. The note with it: for absorbance at 405 nm, single readings: 37° C., beside 100% Saliva Control; for Ave: mean of four readings at 405 nm.

Description for α-amylase: Enzymatic activity of α-amylase on the substrate yields 2-chloro-p-nitrophenol, which can be measured spectrophotometrically at 405 nm. The amount of α-amylase activity present in the experimental sample is directly proportional to the increase in absorbance at 405 nm.

Consider `COc1ccc(O)c(C(C)(C)C)c1` [CDI-039, 3-tert--butyl-hydroxyanisole], for which the peroxidase inhibition entry in the assay on peroxidase is recorded as “significant peroxidase inhibition capabilities”.
Consider `Cn1c(=O)c2c(ncn2C)n(C)c1=O` [CDI #33, Caffeine], for which the peroxidase inhibition entry in the assay on peroxidase is listed as “significant peroxidase inhibition capabilities”.
As for “Aluminum potassium sulfate dodecahydrate [CDI-42]”, the peroxidase inhibition result in the assay with peroxidase was “significant peroxidase inhibition capabilities”. Further, the “absorbance at 405 nm, single readings” value at α-amylase (0 min) is 0.80 and 0.90 and 0.84; on α-amylase (5 min), 1.80. Moreover, the Ave on α-amylase (0 min) was determined as 0.92; at α-amylase (5 min), 1.85; on α-amylase (15 min), 2.29.
For Aluminum sulfate hydrate [CDI-34], the “absorbance at 405 nm, single readings” value was 0.40 and 0.36 and 0.45 at α-amylase (0 min, sulfate hydrate); 0.49 and 0.50 and 0.52 at α-amylase (5 min, sulfate hydrate); 0.53 and 0.61 and 0.54 and 0.56 on α-amylase (15 min, sulfate hydrate). For the same molecule, the Ave worked out at 0.40 at α-amylase (0 min), 0.50 on α-amylase (5 min) and 0.56 at α-amylase (15 min).
